Measured values as given in patent US6737383B1, “Herbicidal oxadiazolidines” (priority 1999, dated 2004).

How the values were obtained:
purple nutsedge = experiment: Test B pre/postemergence purple nutsedge; format: in vivo, Cyperus rotundus
Outline: (§1)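 Response is a visual 0-to-10 score relative to untreated plants, where 0 means no effect and 10 means complete control, taken twelve to sixteen days after application. Treatments went onto soil at planting and onto foliage of 1- to 4-leaf plants, using a surfactant-containing non-phytotoxic solvent.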

surinam grass = experiment: Test B pre/postemergence surinam grass; format: in vivo, Brachiaria decumbens
Outline: as §1

rape = experiment: Test B pre/postemergence rape; format: in vivo, Brassica napus
Outline: as §1

bamyardgrass = experiment: Test B flood test barnyardgrass; format: in vivo, Echinochloa crus-galli
Outline: (§2)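 Each value is a visual injury score relative to controls, with 10 meaning complete control and 0 no effect. Evaluation took place twelve to sixteen days after the 2-leaf-stage plants were treated and kept in the greenhouse.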

morningglory = experiment: Test B pre/postemergence morningglory; format: in vivo, Ipomoea hederacea
Outline: as §1

wild oat = experiment: Test B pre/postemergence wild oat; format: in vivo, Avena fatua
Outline: as §1

bedstraw = experiment: Test B pre/postemergence bedstraw; format: in vivo, Galium aparine; conditions: Preemergence; for Plant response rating, Bedstraw: scale of 0 to 10 where 0 is no effect and 10 is complete control; for Bedstraw plant response rating: scale 0 to 10, 0 is no effect, 10 is complete control
Outline: as §1

velvetleaf = experiment: Test B pre/postemergence velvetleaf; format: in vivo, Abutilon theophrasti
Outline: as §1

corn = experiment: Test B pre/postemergence corn; format: in vivo, Zea mays
Outline: as §1

pigweed = experiment: Test B pre/postemergence pigweed; format: in vivo, Amaranthus retroflexus
Outline: as §1

cocklebur = experiment: Test B pre/postemergence cocklebur; format: in vivo, Xanthium strumarium
Outline: as §1

rice = experiment: Test B flood test rice; format: in vivo, Oryza sativa
Outline: as §2

wheat = experiment: Test B pre/postemergence wheat; format: in vivo, Triticum aestivum
Outline: as §1

smallflower flatsedge = experiment: Test B flood test smallflower flatsedge; format: in vivo, Cyperus difformis
Outline: as §2

duck salad = experiment: Test B flood test duck salad; format: in vivo, Heteranthera limosa
Outline: as §2

blackgrass = experiment: Test B pre/postemergence blackgrass; format: in vivo, Alopecurus myosuroides; conditions: for Plant response rating, Blackgrass: scale of 0 to 10 where 0 is no effect and 10 is complete control
Outline: as §1

[1] = Postemergence, Rate 250 g/ha, scale 0 to 10
[2] = Postemergence, Rate 500 g/ha, scale of 0 to 10 where 0 is no effect and 10 is complete control
[3] = Preemergence, Rate 62 g/ha, scale of 0 to 10 where 0 is no effect and 10 is complete control
[4] = Preemergence, Rate 125 g/ha, scale of 0 to 10 where 0 is no effect and 10 is complete control
[5] = Preemergence, Rate 250 g/ha, scale 0 to 10, 0 is no effect, 10 is complete control
[6] = Preemergence, Rate 500 g/ha, scale 0 to 10, 0 is no effect, 10 is complete control
[7] = Rate 62 g/ha, Postemergence, scale 0 to 10 (0 no effect, 10 complete control)
[8] = Rate 125 g/ha, Postemergence, scale 0 to 10, 0 is no effect, 10 is complete control
[9] = Rate 62 g/ha, flood test species, Pre-emergence, visual evaluation after twelve to sixteen days
[10] = Rate 125 g/ha, under heading Pre-emergence, flood test species, visual evaluation after twelve to sixteen days
[11] = Rate 250 g/ha, Pre-emergence (flood test species), scale 0 to 10, 0 is no effect, 10 is complete control
[12] = Rate 500 g/ha, Pre-emergence, flood test species, scale 0 to 10 (0 no effect, 10 complete control)

## CCc1nc(C)c(C(C)n2c(=O)on(C(=O)N(c3ccc(F)cc3)C(C)C)c2=O)s1 (centres unmarked) [Compound 449]
Purple nutsedge; [1]
  Nutsedge plant response rating: 0
Purple nutsedge; [2]
  Nutsedge plant response rating: 0
Purple nutsedge; [3]
  Plant response rating, Nutsedge: 0
Purple nutsedge; [4]
  Plant response rating, Nutsedge: 0
Purple nutsedge; [5]
  Nutsedge plant response rating: 0
Purple nutsedge; [6]
  Nutsedge plant response rating: 0
Purple nutsedge; [7]
  Nutsedge plant response rating: 0
Purple nutsedge; [8]
  Nutsedge plant response rating: 0
Surinam grass; Postemergence, Rate 250 g/ha, scale 0 to 10, 0 no effect, 10 complete control
  B. signalgrass plant response rating: 0
Surinam grass; [2]
  B. signalgrass plant response rating: 4
Surinam grass; [3]
  Plant response rating, B. signalgrass: 0
Surinam grass; [4]
  Plant response rating, B. signalgrass: 0
Surinam grass; [5]
  B. signalgrass plant response rating: 0
Surinam grass; [6]
  B. signalgrass plant response rating: 0
Surinam grass; [7]
  B. signalgrass plant response rating: 0
Surinam grass; [8]
  B. signalgrass plant response rating: 0
rape; [1]
  Rape plant response rating: 0
rape; [2]
  Rape plant response rating: 3
rape; [3]
  Plant response rating, Rape: 0
rape; [4]
  Plant response rating, Rape: 0
rape; [5]
  Rape plant response rating: 0
rape; [6]
  Rape plant response rating: 0
rape; [7]
  Rape plant response rating: 0
rape; [8]
  Rape plant response rating: 0
bamyardgrass; [9]
  Plant response rating, Barnyardgrass (0 to 10 scale, 0 is no effect, 10 is complete control): 0
bamyardgrass; [10]
  Barnyardgrass plant response rating (0 to 10 scale, 0 is no effect, 10 is complete control): 0
bamyardgrass; [11]
  Barnyardgrass plant response rating: 0
bamyardgrass; [12]
  Barnyardgrass plant response rating: 0
morningglory; [1]
  Morningglory plant response rating: 5
morningglory; [2]
  Morningglory plant response rating: 5
morningglory; [3]
  Plant response rating, Morningglory: 0
morningglory; [4]
  Plant response rating, Morningglory: 0
morningglory; [5]
  Morningglory plant response rating: 0
morningglory; [6]
  Morningglory plant response rating: 0
morningglory; [7]
  Morningglory plant response rating: 2
morningglory; [8]
  Morningglory plant response rating: 5
Wild oat; [1]
  Wild oats plant response rating: 0
Wild oat; [2]
  Wild oats plant response rating: 4
Wild oat; [3]
  Plant response rating, Wild oats: 0
Wild oat; [4]
  Plant response rating, Wild oats: 0
Wild oat; [5]
  Wild oats plant response rating: 0
Wild oat; [6]
  Wild oats plant response rating: 0
Wild oat; [7]
  Wild oats plant response rating: 0
Wild oat; [8]
  Wild oats plant response rating: 0
bedstraw; Rate 62 g/ha
  Plant response rating, Bedstraw: 0
bedstraw; Rate 125 g/ha
  Plant response rating, Bedstraw: 0
bedstraw; Rate 250 g/ha
  Bedstraw plant response rating: 0
bedstraw; Rate 500 g/ha
  Bedstraw plant response rating: 4
velvetleaf; [1]
  Velvetleaf plant response rating: 0
velvetleaf; [2]
  Velvetleaf plant response rating: 0
velvetleaf; [3]
  Plant response rating, Velvetleaf: 0
velvetleaf; [4]
  Plant response rating, Velvetleaf: 0
velvetleaf; [5]
  Velvetleaf plant response rating: 0
velvetleaf; [6]
  Velvetleaf plant response rating: 0
velvetleaf; [7]
  Velvetleaf plant response rating: 0
velvetleaf; [8]
  Velvetleaf plant response rating: 0
corn; [1]
  Corn plant response rating: 0
corn; [2]
  Corn plant response rating: 0
corn; [3]
  Plant response rating, Corn: 0
corn; [4]
  Plant response rating, Corn: 0
corn; [5]
  Corn plant response rating: 0
corn; [6]
  Corn plant response rating: 0
corn; [7]
  Corn plant response rating: 0
corn; [8]
  Corn plant response rating: 0
pigweed; [1]
  Redroot pigweed plant response rating: 2
pigweed; [2]
  Redroot pigweed plant response rating: 4
pigweed; [3]
  Plant response rating, Redroot pigweed: 0
pigweed; [4]
  Plant response rating, Redroot pigweed: 0
pigweed; [5]
  Redroot pigweed plant response rating: 0
pigweed; [6]
  Redroot pigweed plant response rating: 3
pigweed; [7]
  Redroot pigweed plant response rating: 0
pigweed; [8]
  Redroot pigweed plant response rating: 0
cocklebur; [1]
  Cocklebur plant response rating: 2
cocklebur; [2]
  Cocklebur plant response rating: 3
cocklebur; [3]
  Plant response rating, Cocklebur: 0
cocklebur; [4]
  Plant response rating, Cocklebur: 0
cocklebur; [5]
  Cocklebur plant response rating: 0
cocklebur; [6]
  Cocklebur plant response rating: 0
cocklebur; [7]
  Cocklebur plant response rating: 0
cocklebur; [8]
  Cocklebur plant response rating: 0
rice; [9]
  Plant response rating, Rice (0 to 10 scale, 0 is no effect, 10 is complete control): 0
rice; [10]
  Rice plant response rating (0 to 10 scale, 0 is no effect, 10 is complete control): 0
rice; [11]
  Rice plant response rating: 0
rice; [12]
  Rice plant response rating: 0
wheat; [1]
  Wheat plant response rating: 0
wheat; [2]
  Wheat plant response rating: 3
wheat; [3]
  Plant response rating, Wheat: 0
wheat; [4]
  Plant response rating, Wheat: 0
wheat; [5]
  Wheat plant response rating: 0
wheat; [6]
  Wheat plant response rating: 0
wheat; [7]
  Wheat plant response rating: 0
wheat; [8]
  Wheat plant response rating: 0
Smallflower flatsedge; [9]
  Plant response rating, S. Flatsedge (0 to 10 scale, 0 is no effect, 10 is complete control): 0
Smallflower flatsedge; [10]
  S. Flatsedge plant response rating (0 to 10 scale, 0 is no effect, 10 is complete control): 0
Smallflower flatsedge; [11]
  S. Flatsedge plant response rating: 0
Smallflower flatsedge; [12]
  S. Flatsedge plant response rating: 0
Duck salad; [9]
  Plant response rating, Ducksalad (0 to 10 scale, 0 is no effect, 10 is complete control): 0
Duck salad; [10]
  Ducksalad plant response rating (0 to 10 scale, 0 is no effect, 10 is complete control): 0
Duck salad; [11]
  Ducksalad plant response rating: 0
Duck salad; [12]
  Ducksalad plant response rating: 0
blackgrass; [1]
  Blackgrass plant response rating: 0
blackgrass; Preemergence, Rate 62 g/ha
  Plant response rating, Blackgrass: 0
blackgrass; Preemergence, Rate 125 g/ha
  Plant response rating, Blackgrass: 0
blackgrass; [5]
  Blackgrass plant response rating: 0
blackgrass; [6]
  Blackgrass plant response rating: 3
blackgrass; [7]
  Blackgrass plant response rating: 0
blackgrass; [8]
  Blackgrass plant response rating: 0
